Reference: publication PMC6736837, “^18F-labelled triazolyl-linked argininamides targeting the neuropeptide Y Y1R for PET imaging of mammary carcinoma” (Scientific Reports, 2019)

What was measured:
[1] = Binding to human plasma proteins by gel filtration; assay type: in vitro ADME; settings: 37 °C, read-out: Free fraction in plasma
Protocol: The binding of ^18F-labelled compounds to plasma proteins was determined using gel filtration columns(illustra™ MicroSpin™ G-50 Columns, GE Healthcare Life Sciences, Freiburg). An aliquot of the radiotracer (approx. 100 kBq) was added to 200 µL of saline, and 100 µL of human plasma, respectively. Both samples were incubated at 37 °C for 10 min. MicroSpin™ columns were prepared according to the user instruction. Then 25 µL of the incubated radiotracer were given onto the columns and the devices were centrifuged (2000 × g, 2 min). Eluate and solid phase were analysed in the γ-counter (Wallac Wizard). The percentage of unbound radioligand was calculated as %free=cpmsolidphase/cpmsolidphase+cpmeluate . The sample in saline was used as control.

[2] = Radiotracer stability in human serum by radio-HPLC; assay type: in vitro ADME; settings: 37 °C
Protocol: The stability of ^18F-labelled compounds was determined in human serum. An aliquot of the radiotracer (5–10 MBq) was added to 200 µL human serum and incubated at 37 °C. Aliquots of 15 µL were taken after 5, 10, 15, 30, 45, 60, 120 and 180 min and quenched in 100 µL of 10% aqueous TFA. The samples were centrifuged (20000 × g, 2 min), and the supernatants were analysed by radio-HPLC (Chromolith RP-18e, 100 × 4.6 mm, 4 mL/min, 0–1 min 25% CH3CN (0.1% TFA) in water (0.1% TFA), 1–6 min 25–60%, 6–7 min 60–100%, 7–8 min 100%).

[3] = Biodistribution in healthy mice; assay type: in vivo, mouse; settings: for kidney uptake: at 30 and 90 min p.i.
Protocol: Biodistribution studies were conducted using female NMRI outbred mice (HsdWin:NMRI) purchased from Envigo (Horst, The Netherlands). Mice were kept in groups of four to five animals in individually ventilated cages in a twelve hours dark/light cycle with unlimited access to water and standard chow. At the age of eight to nine weeks six animals per radiotracer were injected with 2–4 MBq of the respective radiotracer under isoflurane anesthesia. Mice were sacrificed by cervical dislocation 30 or 90 min p.i. of the radiotracer. Blood as well as the organs/tissues lung, liver, kidneys, heart, spleen, brain, muscle, intestines, gall bladder and bones were harvested and analysed in the γ-counter. Samples were weighed and radioactivity in different tissues was calculated as percentage of the total injected dose per gram tissue (%ID/g).

SMILES	fraction unbound at 10 min [1]	Stability over 3 h in human serum [2]	uptake in the gall bladder ([3]; after 90 min)	kidney uptake [3]
N/C(=N/C(=O)NCc1cn([C@@H]2OC(C[18F])[C@@H](O)C(O)C2O)nn1)NCCC[C@@H](NC(=O)C(c1ccccc1)c1ccccc1)C(=O)NCc1ccc(O)cc1 (stereo partly drawn) [[^18F]11, (2R)‐5‐{[(1Z)‐Amino({[({1‐[(2R,5S)‐6‐([^18F]fluoromethyl)‐3,4,5‐trihydroxyoxan‐2‐yl]‐1H‐1,2,3‐triazol‐4‐yl}methyl)carbamoyl]imino})methyl]amino}‐2‐(2,2‐diphenylacetamido)‐N‐[(4‐hydroxyphenyl)-methyl]pentanamide]	0.42	>99%	up to 600 %ID/g	less than 5 %ID/g
N/C(=N/C(=O)NCc1cn(CCOCCOCCOCC[18F])nn1)NCCC[C@@H](NC(=O)C(c1ccccc1)c1ccccc1)C(=O)NCc1ccc(O)cc1 [[^18F]13, (2R)‐5‐{[(1Z)‐Amino[({[1‐(2‐{2‐[2‐(2‐[^18F]fluoroethoxy)ethoxy]ethoxy}ethyl)‐1H‐1,2,3‐triazol‐4‐yl]methyl}carbamoyl)imino]methyl]amino}‐2‐(2,2‐diphenylacetamido)‐N‐[(4‐hydroxyphenyl)-methyl]pentanamide]	0.37	>99%	–	less than 5 %ID/g
